Laboratory results published in patent publication US11534437B2, “Methods of treating radiation induced gastrointestinal syndrome (RIGS) and related disease states using compound 512” (BCN Biosciences L.L.C., priority 2017, dated 2022).

Legend:
plasma cytokines = assay: Plasma cytokine levels in rodents after lower thoracic radiation; format: in vivo; conditions: LTI + 512, 5 mg/kg 512
Source text: Ctl, control with no treatment. LTI, lower thoracic radiation, LTI+512, radiation, and 512. The cytokine phenotype is anti-inflammatory where IL-6 is an anti-inflammatory cytokine required for controlling local or systemic acute inflammatory responses and IL-1 is pro inflammatory and so forth.

[1] = test system: HEK293 cells having TCF/LEF luciferase reporter construct; assay: TCF/LEF luciferase reporter assay for canonical WNT activity; format: cell-based; conditions: LiCl 10 mM, 24 hr
Experimental: To determine the canonical WNT activity in 512 (28.78 μM) HEK293 cells having TCF/LEF luciferase reporter construct were treated with 512 or vehicle control. LiCl (10 mM) treatment was used as positive control for luciferase activity. Luciferase activity was determined 24 hr after using Dual-Luciferase® Reporter Assay System (Promega) as per manufacturer's protocol. HEK293 cells having FOPFLASH construct were used as negative control. […] WNT-β catenin signaling is well known to promote the self renewal and differentiation of LGR5+ epithelial (lung, oral, intestinal) stem cells.

## O=[N+]([O-])c1ccc(S(=O)(=O)N2CCN(c3ccccc3)CC2)cc1 [Compound 512, 1-[(4-nitrobenezene)sulfonyl]-4-phenyl piperazine]
Plasma cytokines; Ctl 7, LTI 15
  plasma IL-6 level: 88
Plasma cytokines; Ctl 10, LTI 210
  plasma KC level: 245
Plasma cytokines; Ctl 13, LTI 79
  plasma IL-23 level: 23
Plasma cytokines; Ctl 17, LTI 103
  plasma MCP-1 level: 77
Plasma cytokines; Ctl 25, LTI 88
  plasma MIP-1b level: 13
Plasma cytokines; Ctl 32, LTI 50
  plasma IL-1b level: 7

## [Cl-].[Li+] [LiCl]
[1]
  luciferase activity (positive control): significant increase in Luciferase activity
